From patent US11717508B2, “Compounds, compositions, and methods for inhibiting bacterial growth” (priority 2016, dated 2023)
Where two headings read alike, the source gives them in different places.

How the values were obtained:
[1] = test system: DosR regulon genes (dosR, hspX and tgs1); test: NO and vitamin C sensitivity assays (RT-PCR); type: cell-based, Mycobacterium tuberculosis; conditions: for induction of dosR / induction of hspX / induction of tgs1: 2 h
[2] = test system: CDC1551(hspX′:GFP) reporter; test: microbe, parasite or virus in culture; type: cell-based, Mycobacterium tuberculosis; conditions: Mycobacterium tuberculosis, 6 days of treatment
[3] = test system: Mtb; test: microbe, parasite or virus in culture; type: cell-based; conditions: Mycobacterium tuberculosis; 6 days, optical density; unit given as M; read-out: growth inhibition EC50
[4] = test system: Mtb Erdman; conditions: 1 μM and 5 μM INH, ten days post INH treatment
[5] = test system: Mtb Erdman; test: microbe, parasite or virus in culture; conditions: Mycobacterium tuberculosis, 240 h, read-out: viability, INH alone
[6] = read-out: EC50 of inhibition of CDC1551(hspX′:GFP) reporter (dosR-dependent GFP) fluorescence

Question: With `C[C@H]1[C@@H](O)O[C@@H]2O[C@@]3(C)CC[C@H]4[C@H](C)CC[C@@H]1[C@@]24OO3` [DHA, dihydroartemisinin, reference compound] as the compound, how does the “reduction of magnitude of induction of transcripts in response to DETA-NONOate vs DMSO treatment” value ([1]; 80 μM pretreatment 24 h) read?
Answer: ~2 fold

Question: What does the source list for `CN(C)CCCN1C(=O)c2cccc3c(Br)ccc(c23)C1=O` [HC104A, 6-bromo-2-[3-(dimethylamino)propyl]benzo[de]isoquinoline-1,3-dione]?
Answer: EC50 ([2]; unit given as M, read-out: EC50 of inhibition of dosR-dependent GFP fluorescence): 2.8 µM; EC50 [3]: > 80 µM

Question: Which EC50 [2, 6] does the source give for `CCCS(=O)(=O)N1CCN(Cc2ccc3c(c2)c2ccccc2n3CC)CC1` [HC105A, 9-ethyl-3-[(4-propylsulfonylpiperazin-1-yl)methyl]carbazole; oxalic acid] here?
Answer: 12.7 µM

Question: And the EC50 [3]?
Answer: > 80 µM

Question: Which EC50 [2, 6] does the source give for `O=C(Nc1ccno1)Nc1ccc(Cl)cc1Cl` [HC106A, 1-(2,4-dichlorophenyl)-3-(1,2-oxazol-5-yl)urea] here?
Answer: 6.9 µM

Question: What about the EC50 [3] of the same compound?
Answer: > 80 µM

Question: Which results are given for `NNC(=O)c1ccncc1` [INH, isoniazid, reference compound]?
Answer: viability, INH alone [4]: ~100%; viability at 25 µM [5]: ~75%

Question: With `[N]=O` [NO, reference compound] as the compound, how does the “induction of dosR” value ([1]; NO (50 μM DETA-NONOate)) read?
Answer: 491 fold

Question: What about the “induction of hspX” value ([1]; NO (50 μM DETA-NONOate)) of the same compound?
Answer: 373 fold

Question: What about the “induction of tgs1” value ([1]; NO (50 μM DETA-NONOate)) of the same compound?
Answer: 47 fold

Question: For `O=C1O[C@H]([C@@H](O)CO)C(O)=C1O` [vitamin C, reference compound], which “induction of dosR” value ([1]; 2 mM vitamin C) is on record?
Answer: 4 fold

Question: What about the “induction of hspX” value ([1]; 2 mM vitamin C) of the same compound?
Answer: 14 fold

Question: And the “induction of tgs1” value ([1]; 2 mM vitamin C)?
Answer: 52 fold
